Measured values taken from US9930892B2, “Molecules having pesticidal utility, and intermediates, compositions, and processes, related thereto” (Dow AgroSciences LLC, priority 2016, dated 2018).

Columns and labels:
[1] = tested on: Cabbage Looper (Trichoplusia ni); test: Bioassay on Cabbage Looper (CL), 128-well diet tray assay; format: in vivo; details: for CL % Control (or Mortality) rating: 50 μg/cm^2 on artificial diet, second instar larvae, five to seven days, 25° C.; for mortality at 0.05 µg/cm2 / mortality at 0.5 µg/cm2 / mortality at 5 µg/cm2: Trichoplusia ni, read-out: CL Percent control (or mortality); for mortality at 0.05 µg/cm2: 0.05 μg/cm^2; for mortality at 0.5 µg/cm2: 0.5 μg/cm^2; for mortality at 5 µg/cm2: 5 μg/cm^2
Protocol: Bioassays on CL were conducted using a 128-well diet tray assay. One to five second instar CL larvae were placed in each well (3 mL) of the diet tray that had been previously filled with 1 mL of artificial diet to which 50 μg/cm^2 of the test molecule (dissolved in 50 μL of 90:10 acetone-water mixture) had been applied (to each of eight wells) and then allowed to dry. Trays were covered with a clear self-adhesive cover and held at 25° C., 14:10 light-dark for five to seven days. Percent mortality was recorded for the larvae in each well; activity in the eight wells was then averaged. The results are indicated in the table entitled “Table ABC: Biological Results” (See Table Section).
(§1) Bioassays on BAW and CL were conducted according to the procedures outlined in Example A: Bioassays on Beet Armyworm (“BAW”) and Cabbage Looper (“CL”) using the indicated concentrations.

[2] = tested on: Beet Armyworm (Spodoptera exigua); test: Bioassay on Beet Armyworm (BAW), 128-well diet tray assay; format: in vivo; details: for BAW % Control (or Mortality) rating: 50 μg/cm^2 on artificial diet, second instar larvae, five to seven days, 25° C.; for mortality at 0.05 µg/cm2 / mortality at 0.5 µg/cm2 / mortality at 5 µg/cm2: Spodoptera exigua, read-out: BAW Percent control (or mortality); for mortality at 0.05 µg/cm2: 0.05 μg/cm^2; for mortality at 0.5 µg/cm2: 0.5 μg/cm^2; for mortality at 5 µg/cm2: 5 μg/cm^2
Protocol: Bioassays on BAW were conducted using a 128-well diet tray assay. One to five second instar BAW larvae were placed in each well (3 mL) of the diet tray that had been previously filled with 1 mL of artificial diet to which 50 μg/cm^2 of the test molecule (dissolved in 50 μL of 90:10 acetone-water mixture) had been applied (to each of eight wells) and then allowed to dry. Trays were covered with a clear self-adhesive cover and held at 25° C., 14:10 light-dark for five to seven days. Percent mortality was recorded for the larvae in each well; activity in the eight wells was then averaged. The results are indicated in the table entitled “Table ABC: Biological Results” (See Table Section).
as §1

C=Cc1c(Cl)cc(C(/C=C(\F)c2ccc(C(=O)NN(C)C(=O)NCC(F)(F)F)c(C(F)(F)F)c2)C(F)(F)F)cc1Cl (stereo not shown) [F17, (Z)-2-(4-(3-(3,5-Dichloro-4-vinylphenyl)-1,4,4,4-tetrafluorobut-1-en-1-yl)-2-(trifluoromethyl)benzoyl)-1-methyl-N-(2,2,2-trifluoroethyl)hydrazinecarboxamide]
CL % Control (or Mortality) rating [1]: A (50-100)
BAW % Control (or Mortality) rating [2]: A (50-100)

CC(F)(F)C(/C=C(\F)c1ccc(C(=O)NNC(=O)NCC(F)(F)F)c(C(F)(F)F)c1)c1cc(Cl)c(Cl)c(Cl)c1 (stereo not shown) [F12, (Z)-2-(4-(1,4,4-Trifluoro-3-(3,4,5-trichlorophenyl)pent-1-en-1-yl)-2-(trifluoromethyl)benzoyl)-N-(2,2,2-trifluoroethyl)hydrazinecarboxamide]
CL % Control (or Mortality) rating [1]: A (50-100)
BAW % Control (or Mortality) rating [2]: A (50-100)

O=C(CCC(F)(F)F)NNC(=O)c1ccc(/C(F)=C/C(c2cc(Cl)c(Cl)c(Cl)c2)C(F)(F)F)cc1Cl (stereo not shown) [F20, (Z)-2-Chloro-4-(1,4,4,4-tetrafluoro-3-(3,4,5-trichlorophenyl)but-1-en-1-yl)-N′-(4,4,4-trifluorobutanoyl)benzohydrazide]
CL % Control (or Mortality) rating [1]: A (50-100)
BAW % Control (or Mortality) rating [2]: A (50-100)

CN(NC(=O)c1ccc(/C(F)=C/C(c2cc(Cl)c(Cl)c(Cl)c2)C(F)(F)F)cc1)C(=O)NCC(F)(F)F (stereo not shown) [FC1, (Z)-1-methyl-2-(4-(1,4,4,4-tetrafluoro-3-(3,4,5-trichlorophenyl)but-1-en-1-yl)benzoyl)-N-(2,2,2-trifluoroethyl)hydrazinecarboxamide, reference compound]
mortality at 0.05 µg/cm2 [1]: 0%
mortality at 0.5 µg/cm2 [1]: 0%
mortality at 5 µg/cm2 [1]: 7%
mortality at 0.05 µg/cm2 [2]: 0%
mortality at 0.5 µg/cm2 [2]: 0%
mortality at 5 µg/cm2 [2]: 25%

O=C(NCC(F)(F)F)NNC(=O)c1ccc(/C(F)=C/C(c2cc(Cl)c(Cl)c(Cl)c2)C(F)(F)F)cc1C(F)(F)F (stereo not shown) [F3, (Z)-2-(4-(1,4,4,4-Tetrafluoro-3-(3,4,5-trichlorophenyl)but-1-en-1-yl)-2-(trifluoromethyl)benzoyl)-N-(2,2,2-trifluoroethyl)hydrazinecarboxamide]
CL % Control (or Mortality) rating [1]: A (50-100)
BAW % Control (or Mortality) rating [2]: A (50-100)

O=C(CCC(F)(F)F)NNC(=O)c1ccc(/C(F)=C/C(c2cc(Cl)c(Cl)c(Cl)c2)C(F)(F)F)cc1I (stereo not shown) [F21, (Z)-2-Iodo-4-(1,4,4,4-tetrafluoro-3-(3,4,5-trichlorophenyl)but-1-en-1-yl)-N′-(4,4,4-trifluorobutanoyl)benzohydrazide]
CL % Control (or Mortality) rating [1]: A (50-100)
BAW % Control (or Mortality) rating [2]: A (50-100)

CN(NC(=O)c1ccc(/C(F)=C/C(c2cc(Cl)cc(C(F)(F)F)c2)C(F)(F)F)cc1C(F)(F)F)C(=O)NCC(F)(F)F (stereo not shown) [PF9, (Z)-2-(4-(3-(3-Chloro-5-(trifluoromethyl)phenyl)-1,4,4,4-tetrafluorobut-1-en-1-yl)-2-(trifluoromethyl)benzoyl)-1-methyl-N-(2,2,2-trifluoroethyl)hydrazine-1-carboxamide]
CL % Control (or Mortality) rating [1]: A (50-100)
BAW % Control (or Mortality) rating [2]: A (50-100)

Cc1cc(/C(F)=C/C(c2cc(Cl)c(Cl)c(Cl)c2)C(F)(F)F)ccc1C(=O)NN(C)C(=O)NCC(F)(F)F (stereo not shown) [F28, (Z)-1-Methyl-2-(2-methyl-4-(1,4,4,4-tetrafluoro-3-(3,4,5-trichlorophenyl)but-1-en-1-yl)benzoyl)-N-(2,2,2-trifluoroethyl)hydrazinecarboxamide]
mortality at 0.05 µg/cm2 [1]: 100%
mortality at 0.5 µg/cm2 [1]: 100%
mortality at 5 µg/cm2 [1]: 100%
mortality at 0.05 µg/cm2 [2]: 88%
mortality at 0.5 µg/cm2 [2]: 100%
mortality at 5 µg/cm2 [2]: 100%

CN(NC(=O)c1ccc(/C(F)=C/C(c2cc(Cl)c(Cl)c(Cl)c2)C(F)(F)F)cc1C(F)(F)F)C(=O)CCC(F)(F)F (stereo not shown) [F11, (Z)—N′-Methyl-4-(1,4,4,4-tetrafluoro-3-(3,4,5-trichlorophenyl)but-1-en-1-yl)-N′-(4,4,4-trifluorobutanoyl)-2-(trifluoromethyl)benzohydrazide]
CL % Control (or Mortality) rating [1]: A (50-100)
BAW % Control (or Mortality) rating [2]: A (50-100)

CC(C)(C)C(=O)NNC(=O)c1ccc(/C(F)=C/C(c2cc(Cl)c(Cl)c(Cl)c2)C(F)(F)F)cc1C(F)(F)F (stereo not shown) [F29, (Z)—N′-Pivaloyl-4-(1,4,4,4-tetrafluoro-3-(3,4,5-trichlorophenyl)but-1-en-1-yl)-2-(trifluoromethyl)benzohydrazide]
CL % Control (or Mortality) rating [1]: A (50-100)
BAW % Control (or Mortality) rating [2]: A (50-100)

O=C(CCC(F)(F)F)NNC(=O)c1ccc(/C(F)=C/C(c2cc(Cl)c(Cl)c(Cl)c2)C(F)(F)F)cc1C(F)(F)F (stereo not shown) [F4, (Z)-4-(1,4,4,4-Tetrafluoro-3-(3,4,5-trichlorophenyl)but-1-en-1-yl)-N′-(4,4,4-trifluorobutanoyl)-2-(trifluoromethyl)benzohydrazide]
CL % Control (or Mortality) rating [1]: A (50-100)
BAW % Control (or Mortality) rating [2]: A (50-100)

CN(NC(=O)c1ccc(/C(F)=C/C(c2cc(Cl)c(Cl)c(Cl)c2)C(F)(F)F)c2ccccc12)C(=O)NCC(F)(F)F (stereo not shown) [PF1, (Z)-1-Methyl-2-(4-(1,4,4,4-tetrafluoro-3-(3,4,5-trichlorophenyl)but-1-en-1-yl)-1-naphthoyl)-N-(2,2,2-trifluoroethyl)hydrazine-1-carboxamide]
CL % Control (or Mortality) rating [1]: A (50-100)
BAW % Control (or Mortality) rating [2]: A (50-100)

CN(NC(=O)CCC(F)(F)F)C(=O)c1ccc(/C(F)=C/C(c2cc(Cl)c(Cl)c(Cl)c2)C(F)(F)F)cc1C(F)(F)F (stereo not shown) [F13, (Z)—N-methyl-4-(1,4,4,4-tetrafluoro-3-(3,4,5-trichlorophenyl)but-1-en-1-yl)-N′-(4,4,4-trifluorobutanoyl)-2-(trifluoromethyl)benzohydrazide]
CL % Control (or Mortality) rating [1]: A (50-100)
BAW % Control (or Mortality) rating [2]: A (50-100)

CN(NC(=O)c1ccc(/C(F)=C/C(c2cc(Br)c(Cl)c(Br)c2)C(F)(F)F)cc1C(F)(F)F)C(=O)NCC(F)(F)F (stereo not shown) [F18, (Z)-2-(4-(3-(3,5-Dibromo-4-chlorophenyl)-1,4,4,4-tetrafluorobut-1-en-1-yl)-2-(trifluoromethyl)benzoyl)-1-methyl-N-(2,2,2-trifluoroethyl)hydrazinecarboxamide]
CL % Control (or Mortality) rating [1]: A (50-100)
BAW % Control (or Mortality) rating [2]: A (50-100)

CN(NC(=O)c1ccc(/C(F)=C/C(c2cc(Cl)c(Br)c(Cl)c2)C(F)(F)F)cc1C(F)(F)F)C(=O)NCC(F)(F)F (stereo not shown) [F23, (Z)-2-(4-(3-(4-Bromo-3,5-dichlorophenyl)-1,4,4,4-tetratfluorobut-1-en-1-yl)-2-(trifluoromethyl)benzoyl)-1-methyl-N-(2,2,2-trifluoroethyl)hydrazinecarboxamide]
CL % Control (or Mortality) rating [1]: A (50-100)
BAW % Control (or Mortality) rating [2]: A (50-100)

CN(NC(=O)c1ccc(/C(F)=C/C(c2cc(Cl)c(Cl)c(Cl)c2)C(F)(F)F)cc1C(F)(F)F)C(=O)NCC(F)(F)F (stereo not shown) [F1, (Z)-1-methyl-2-(4-(1,4,4,4-tetrafluoro-3-(3,4,5-trichlorophenyl)but-1-en-1-yl)-2-(trifluoromethyl)benzoyl)-N-(2,2,2-trifluoroethyl)hydrazinecarboxamide]
CL % Control (or Mortality) rating [1]: A (50-100)
mortality at 0.05 µg/cm2 [1]: 100%
mortality at 0.5 µg/cm2 [1]: 100%
mortality at 5 µg/cm2 [1]: 100%
BAW % Control (or Mortality) rating [2]: A (50-100)
mortality at 0.05 µg/cm2 [2]: 100%
mortality at 0.5 µg/cm2 [2]: 100%
mortality at 5 µg/cm2 [2]: 100%

O=C(NNS(=O)(=O)CCC(F)(F)F)c1ccc(/C(F)=C/C(c2cc(Cl)c(Cl)c(Cl)c2)C(F)(F)F)cc1C(F)(F)F (stereo not shown) [F24, (Z)-3,3,3-Trifluoro-N′-(4-(1,4,4,4-tetrafluoro-3-(3,4,5-trichlorophenyl)but-1-en-1-yl)-2-(trifluoromethyl)benzoyl)propane-1-sulfonohydrazide]
CL % Control (or Mortality) rating [1]: A (50-100)
BAW % Control (or Mortality) rating [2]: A (50-100)

CN(NC(=O)c1ccc(/C(F)=C/C(c2cc(Cl)c(Cl)c(Cl)c2)C(F)(F)F)cc1C(F)(F)F)S(=O)(=O)CCC(F)(F)F (stereo not shown) [F19, (Z)-3,3,3-trifluoro-N-methyl-N′-(4-(1,4,4,4-tetrafluoro-3-(3,4,5-trichlorophenyl)but-1-en-1-yl)-2-(trifluoromethyl)benzoyl)propane-1-sulfonohydrazide]
CL % Control (or Mortality) rating [1]: A (50-100)
BAW % Control (or Mortality) rating [2]: A (50-100)

O=C(NCC(F)(F)F)NNC(=O)c1ccc(/C(F)=C/C(c2cc(Cl)c(Cl)c(Cl)c2)C(F)(F)F)cc1Br (stereo not shown) [F2, (Z)-2-(2-bromo-4-(1,4,4,4-tetrafluoro-3-(3,4,5-trichlorophenyl)but-1-en-1-yl)benzoyl)-N-(2,2,2-trifluoroethyl)hydrazinecarboxamide]
CL % Control (or Mortality) rating [1]: A (50-100)
BAW % Control (or Mortality) rating [2]: A (50-100)
